The target in this assay is T1, Ornithine decarboxylase (ODC) (Rattus norvegicus, UniProt P09057).
T1 construct: is prepared from the livers of rats which have been injected with thioacetamide; from tissue; host or cells: rat liver (thioacetamide-induced)
T1 sequence (P09057 1-461): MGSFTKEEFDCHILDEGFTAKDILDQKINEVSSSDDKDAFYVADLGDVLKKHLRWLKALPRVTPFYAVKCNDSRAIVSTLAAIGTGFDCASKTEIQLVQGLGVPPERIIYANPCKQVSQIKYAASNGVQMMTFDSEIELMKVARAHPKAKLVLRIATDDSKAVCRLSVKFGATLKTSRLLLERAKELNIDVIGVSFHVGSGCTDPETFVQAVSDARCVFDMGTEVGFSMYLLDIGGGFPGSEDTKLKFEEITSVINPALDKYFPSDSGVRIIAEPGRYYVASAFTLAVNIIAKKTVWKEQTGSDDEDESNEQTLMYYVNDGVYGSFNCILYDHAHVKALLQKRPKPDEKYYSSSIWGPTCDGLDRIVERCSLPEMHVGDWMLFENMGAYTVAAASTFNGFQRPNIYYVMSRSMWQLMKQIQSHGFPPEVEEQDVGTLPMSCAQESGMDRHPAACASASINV
Description: In vitro time-dependent inhibition of ornithine decarboxylase (14CO2 release from DL-[1-14C]ornithine; Kitz and Wilson analysis). Type of assay: biochemical, rats. The settings on record: calculated by method of Kitz and Wilson; for Ki: apparent dissociation constant, ODC from livers of thioacetamide-treated rats, incubated at 37°; for ODC τ50: half-life at infinite concentration of inhibitor, rat liver ODC, 37°. As for the experimental part: The stock solution of ODC is composed of proteins (16 mg/mL), sodium phosphate buffer (30 mM, pH 7.1), dithiothreitol (5 mM) and pyridoxal phosphate (0.1 mM). The specific activity of this stock solution is 0.12 nmol of CO2/min per mg of protein. For a typical experiment 320 µl of this stock solution is mixed at time 0 with 80 µl of a solution of the inhibitor in water and incubated at 37°. At different times 50 pl aliquots are transferred into a 1 mL assay medium containing sodium phosphate (30 mM, pH 7.1), dithiothreitol (5 mM), pyridoxal phosphate (0.1 mM), L-ornithine (0.081 pmol), and DL-[1-^14C] ornithine (0.043 pmol, 58 Ci/mol, Amersham) in a closed vessel in which a filter paper moistered with 50 µl hyamine hydroxide (1 M) is fitted. The reaction is allowed to proceed for 60 min at 37°C and then terminated by addition of 0.5 ml of 40% trichloroacetic acid. After an additional 30 min, the CO2 absorbed on the filter paper is counted in a standard scintillation cocktail.

For `C=C(CN)CC(N)(CF)C(=O)O` (stereo not shown) [D, 2-fluoromethyl-2,5-diamino-4-methylene-pentanoic acid], the Ki was 53 µM and the “ODC τ50” value is 3.6 min.
Turning to `C=C(CN)CC(N)C(F)F` (stereo not shown) [E, 1,1-difluoro-2,5-diamino-4-methylene-pentane], the “ODC τ50” value was 2.2 min.
Take `C=C(CN)CC(N)CF` (stereo not shown) [B, 1-fluoro-2,5-diamino-4-methylene-pentane]: the “ODC τ50” value was 2.6 min.
The same measure, in the same setting: the result for `NCC(=O)CC(N)CF` (stereo not shown) [C, 1-fluoro-2,5-diamino-4-oxo-pentane] reads 1.6 min.
As for `NCC(=O)CC(N)(CF)C(=O)O` (stereo not shown) [A, 2-fluoromethyl-2,5-diamino-4-oxo-pentanoic acid], the Ki was 4.8 µM and the “ODC τ50” value is 3.1 min.

The record behind these values is patent EP0072761B1, “Decarboxylase-inhibiting fluorinated alkane diamine derivatives” (MERRELL TORAUDE ET COMPAGNIE, priority 1981, dated 1983).
